ChEMBL document CHEMBL4340511, “22-Oxocholestane oximes as potential anti-inflammatory drug candidates” (Eur J Med Chem, 2019)
Active and inactive are the calls of the source. No cut-off for these calls is given here.

Legend:
Type in all cases: functional, organism-based
Mus musculus [1] = experiment: Antiinflammatory activity in CD1 mouse model of TPA-induced ear edema assessed as decrease in IL-6 expression at 250 ug/ear, each surface administered topically for 15 mins prior to TPA challenge and measured after 6 hrs by qRT-PCR analysis
Mus musculus [2] = experiment: Antiinflammatory activity in CD1 mouse model of TPA-induced ear edema assessed as decrease in MIF expression at 250 ug/ear, each surface administered topically for 15 mins prior to TPA challenge and measured after 6 hrs by qRT-PCR analysis
Mus musculus [3] = experiment: Antiinflammatory activity in CD1 mouse model of TPA-induced ear edema assessed as decrease in COX-2 expression at 250 ug/ear, each surface administered topically for 15 mins prior to TPA challenge and measured after 6 hrs by qRT-PCR analysis
Mus musculus [4] = experiment: Antiinflammatory activity in CD1 mouse model of TPA-induced ear edema assessed as decrease in IFNgamma expression at 250 ug/ear, each surface administered topically for 15 mins prior to TPA challenge and measured after 6 hrs by qRT-PCR analysis
Mus musculus [5] = experiment: Antiinflammatory activity against TPA-induced ear edema in CD1 mouse assessed as reduction in weight of ear punches at 225 ug/ear, each surface administered topically for 15 mins prior to TPA challenge and measured after 6 hrs
Mus musculus [6] = experiment: Antiinflammatory activity in CD1 mouse assessed as reduction in TPA-induced ear flushing at 250 ug/ear, each surface administered topically for 15 mins prior to TPA challenge and measured after 6 hrs
Mus musculus [7] = experiment: Antiinflammatory activity against TPA-induced ear edema in CD1 mouse assessed as reduction in ear edema at 225 ug/ear, each surface administered topically for 15 mins prior to TPA challenge and measured after 6 hrs
Mus musculus [8] = experiment: Antiinflammatory activity in CD1 mouse model of TPA-induced ear edema assessed as decrease in TNFalpha expression at 250 ug/ear, each surface administered topically for 15 mins prior to TPA challenge and measured after 6 hrs by qRT-PCR analysis
Mus musculus [9] = experiment: Antiinflammatory activity against TPA-induced ear edema in CD1 mouse assessed as reduction in ear edema at 125 ug/ear, each surface administered topically for 15 mins prior to TPA challenge and measured after 6 hrs
Mus musculus [10] = experiment: Antiinflammatory activity in CD1 mouse model of TPA-induced ear edema assessed as decrease in MIF expression at 125 ug/ear, each surface administered topically for 15 mins prior to TPA challenge and measured after 6 hrs by qRT-PCR analysis
Mus musculus [11] = experiment: Antiinflammatory activity in CD1 mouse model of TPA-induced ear edema assessed as decrease in IFNgamma expression at 125 ug/ear, each surface administered topically for 15 mins prior to TPA challenge and measured after 6 hrs by qRT-PCR analysis
Mus musculus [12] = experiment: Antiinflammatory activity against TPA-induced ear edema in CD1 mouse assessed as reduction in weight of ear punches at 125 ug/ear, each surface administered topically for 15 mins prior to TPA challenge and measured after 6 hrs
Mus musculus [13] = experiment: Antiinflammatory activity in CD1 mouse model of TPA-induced ear edema assessed as decrease in TNFalpha expression at 125 ug/ear, each surface administered topically for 15 mins prior to TPA challenge and measured after 6 hrs by qRT-PCR analysis
Mus musculus [14] = experiment: Antiinflammatory activity in CD1 mouse assessed as reduction in TPA-induced ear flushing at 125 ug/ear, each surface administered topically for 15 mins prior to TPA challenge and measured after 6 hrs
Mus musculus [15] = experiment: Antiinflammatory activity in CD1 mouse model of TPA-induced ear edema assessed as decrease in COX-2 expression at 125 ug/ear, each surface administered topically for 15 mins prior to TPA challenge and measured after 6 hrs by qRT-PCR analysis
Mus musculus [16] = experiment: Antiinflammatory activity in CD1 mouse model of TPA-induced ear edema assessed as decrease in IL-6 expression at 125 ug/ear, each surface administered topically for 15 mins prior to TPA challenge and measured after 6 hrs by qRT-PCR analysis

Row | SMILES | Activity (Mus musculus [1]) | Activity (Mus musculus [2]) | Activity (Mus musculus [3]) | Activity (Mus musculus [4]) | Activity (Mus musculus [5]) | Activity (Mus musculus [6]) | Activity (Mus musculus [7]) | Activity (Mus musculus [8]) | Activity (Mus musculus [9]) | Activity (Mus musculus [10]) | Activity (Mus musculus [11]) | Activity (Mus musculus [12]) | Activity (Mus musculus [13]) | Activity (Mus musculus [14]) | Activity (Mus musculus [15]) | Activity (Mus musculus [16])
1 | C[C@@H]1C[C@H]2[C@@H]3CCC4=CC(=O)C=C[C@]4(C)[C@@]3(F)[C@@H](O)C[C@]2(C)[C@@]1(O)C(=O)CO | Active | Active | Active | inactive | Active | inactive | Active | Active |  |  |  |  |  |  |  | 
2 | CC(=O)O[C@H]1CC[C@@]2(C)C(=CC[C@H]3[C@@H]4C[C@H](OC(C)=O)[C@H]([C@H](C)C(=O)CC[C@H](C)/C=N/O)[C@@]4(C)CC[C@@H]32)C1 |  |  |  |  |  |  |  |  | Active | Active | inactive | Active | Active | inactive | Active | Active
3 | CC(=O)O[C@H]1C[C@H]2[C@@H]3CC=C4C[C@@H](O)CC[C@]4(C)[C@H]3CC[C@]2(C)[C@H]1[C@H](C)C(=O)CC[C@H](C)/C=N/O |  |  |  |  |  |  |  |  | Active | Active | inactive | Active | Active | inactive | Active | Active
4 | CC(=O)O[C@H]1C[C@H]2[C@@H]3CC=C4C[C@@H](O)CC[C@]4(C)[C@H]3CC[C@]2(C)[C@H]1[C@H](C)C(=O)CC[C@@H](C)/C=N/O |  |  |  |  |  |  |  |  |  |  |  | inactive |  |  |  | 
5 | CC(=O)O[C@H]1C[C@H]2[C@@H]3CC=C4C[C@@H](O)CC[C@]4(C)[C@H]3CC[C@]2(C)[C@H]1[C@H](C)C(=O)CC/C(C)=N/O |  |  |  |  |  |  |  |  | Active | Active | inactive | Active | Active | inactive | Active | Active
6 | CC(=O)O[C@H]1CC[C@@]2(C)C(=CC[C@H]3[C@@H]4C[C@H](OC(C)=O)[C@H]([C@H](C)C(=O)CC[C@@H](C)/C=N/O)[C@@]4(C)CC[C@@H]32)C1 |  |  |  |  |  |  |  |  |  |  |  | inactive |  |  |  | 
